Laboratory results reported in patent US5596002A, “Method of treating chloroquine-resistant malaria with aminoquinoline derivatives” (Hoffmann-La Roche Inc., priority 1993, dated 1997).
Converted amounts (≈) assume the structure as drawn. Like-named read-outs stand apart in the source and are kept apart here.

What was measured:
[1] = test system: Plasmodium falciparum, chloroquine-resistant strain W2 Mef; test: activity against P. falciparum in vitro, strain W2 Mef; type: cell-based; conditions: 48 h-72 h, read-out: IC50 (50% growth inhibition)
Description: (§1) Test method for the determination of the activity against P. falciparum in vitro
(§2) The preparations of the present invention were tested on intraerythrocytary stages of P. falciparum from asynchronous cultures according to the method of Desjardin et al. (Desjardins, R. E. et al: Quantitative assessment of antimalarial activity in vitro by a semiautomated microdilution technique. Antimicrob. Agents Chemother. 16, 710-718, (1979)).
(§3) The culture medium consisted of RPMI 1640 with the addition of 25 mM HEPES, 25 mM NaHCO3, […] neomycin and 10% human serum (A^+). Human-A^+ erythrocytes were used as the P. falciparum host cells. The parasites were maintained at 37° C. in an atmosphere of 3% O2, 4% CO2, 93% N2 and at 95% relative humidity.
(§4) In order to determine the activity, the preparations were dissolved in DMSO, pre-diluted in the culture medium to a suitable starting concentration and subsequently titrated-out into microtitre plates in the 2nd stage over 6-7 steps. After the addition of the parasite culture (0.7% parasitemia in 2.5% erythrocyte suspension), the test plates were incubated under the conditions given above for 48 h-72 h. The parasite growth in the different preparation concentrations was determined using [G-^3 H]-hypoxanthin incorporation compared to untreated control cultures on the same test plates. The 50% growth inhibition (IC50) was calculated according to logit regression analysis from the resulting dosage-activity curve.
(§5) The preparations were tested on at least one chloroquine-resistant and one chloroquine-sensitive P. falciparum strain. Additional sensitive and resistant strains were also included for further characterization.
(§6) Table 1 below contains the IC50 values measured in vitro for the growth inhibition of chloroquine-sensitive and chloroquine-resistant strains of the human pathogenic Plasmodium falciparum.

[2] = test system: Plasmodium falciparum, chloroquine-resistant strain RFCR3; test: activity against P. falciparum in vitro, strain RFCR3; type: cell-based; conditions: chloroquine-resistant strain RFCR3, 48 h-72 h, read-out: IC50 (50% growth inhibition)
Description: as §1, §2, §3, §4, §5, §6

[3] = test system: Plasmodium falciparum, chloroquine-resistant strain W2; test: activity against P. falciparum in vitro, strain W2; type: cell-based; conditions: chloroquine-resistant strain W2, 48 h-72 h, read-out: IC50 (50% growth inhibition)
Description: as §1, §2, §3, §4, §5, §6

[4] = test system: Plasmodium falciparum, chloroquine-resistant strain K1; test: activity against P. falciparum in vitro, strain K1; type: cell-based; conditions: Plasmodium falciparum; chloroquine-resistant strain K1; 48 h-72 h; read-out: IC50 (50% growth inhibition)
Description: as §1, §2, §3, §4, §5, §6

[5] = test system: Plasmodium berghei (strain ANKA); test: activity against Plasmodium berghei in vivo (infected mice); conditions: mice; for ED50: single administration po, dose reducing average erythrocyte infection rate by 50%, read-out: ED50 (po); for inhibition in vivo at 10 mg/kg: 48 hours after treatment (D+3)
Description: Test method for the determination of the activity against Plasmodium berghei in vivo
The preparations according to the present invention were tested on mice infected with malaria pathogens (Plasmodium berghei). Male albino mice (IBM:MORO(SPF), FUELLINSDORF) weighing about 25 g were used as the test animals. They were kept in climatized rooms at 21°-22° C. in groups of 5 animals per cage. They received ad libitum a diet feed with a low PABA content ("NAFAG FUTTER" No. 9009 PAB-45, PABA content 45 mg/kg) and drinking water. On the first day of the test (D0) the test animals were infected with Plasmodium berghei (strain ANKA). For this there was used heparinized blood of a donor mouse with about 30% parasitemia, which was diluted with physiological saline such that it contains 10^8 parasitized erythrocytes per ml. 0.2 ml of this suspension was injected intravenously (i.v.) into the mice to be treated and into the control mice. In untreated control animals the parasitemia normally reaches 30-40% on the third day after the infection (D+3) and the test animals die between days +5 and +7.
The substances to be tested were dissolved or suspended in distilled water or in a mixture of 7% Tween 80, 3% alcohol (96%) and water. Usually, 0.25 ml of this solution or suspension was administered once subcutaneously and perorally to groups of 5 test animals. Treatment was effected 24 hours after the infection. 10 control animals were treated in the same manner with solvent or suspension medium per test.
All substances were tested in a first test in a single dosage of 10 mg/kg. Only those substances which in this test (10 mg/kg) had shown a parasitaemia reduction of 90% were used for the titration.
48 hours after the treatment (D+3), blood smears were prepared from all animals using blood from tail veins and were stained with Giemsa. The average erythrocyte infection rate (parasitemia in %) in the control groups as well as in the groups which had been treated with the test compounds was determined by counting under a microscope. The difference in the average values of the infection rates of control group (100%) and treated groups was calculated and expressed as a percentage reduction (GI %). The ED50 or ED90 was determined mathematically by means of the JMP programme (nonlinear fit). The ED50 (ED90) in mg/kg is that dose which after single administration reduces the average erythrocyte infection rate by 50% (90%) in comparison to the control group.
Table 2 below contains data with respect to the activity measured against Plasmodium berghei in mice: GI % is the percentage reduction in the parasitemia after a single dose of 10 mg/kg of the test substance administered perorally (po) or subcutaneously (sc); ED50 and ED90 are the effective doses of the test substance administered perorally or subcutaneously.

[6] = test system: Plasmodium falciparum, chloroquine-sensitive strain FCH5C2; test: activity against P. falciparum in vitro, strain FCH5C2; type: cell-based; conditions: chloroquine-sensitive strain FCH5C2, 48 h-72 h, read-out: IC50 (50% growth inhibition)
Description: as §1, §2, §3, §4, §5, §6

[7] = test system: Plasmodium falciparum, chloroquine-sensitive strain Ro7 3; test: activity against P. falciparum in vitro, strain Ro7 3; type: cell-based; conditions: chloroquine-sensitive strain Ro7 3, 48 h-72 h, read-out: IC50 (50% growth inhibition)
Description: as §1, §2, §3, §4, §5, §6

[8] = test system: Plasmodium falciparum, chloroquine-sensitive strain RFMEF3; test: activity against P. falciparum in vitro, strain RFMEF3; type: cell-based; conditions: chloroquine-sensitive strain RFMEF3, 48 h-72 h, read-out: IC50 (50% growth inhibition)
Description: as §1, §2, §3, §4, §5, §6

[9] = test system: Plasmodium falciparum, chloroquine-resistant strain Indo; test: activity against P. falciparum in vitro, strain Indo; type: cell-based; conditions: chloroquine-resistant strain Indo, 48 h-72 h, read-out: IC50 (50% growth inhibition)
Description: as §1, §2, §3, §4, §5, §6

[10] = test system: Plasmodium falciparum, chloroquine-resistant strain 7G8; test: activity against P. falciparum in vitro, strain 7G8; type: cell-based; conditions: chloroquine-resistant strain 7G8, 48 h-72 h, read-out: IC50 (50% growth inhibition)
Description: as §1, §2, §3, §4, §5, §6

[11] = test system: Plasmodium falciparum, chloroquine-sensitive strain HB3; test: activity against P. falciparum in vitro, strain HB3; type: cell-based; conditions: chloroquine-sensitive strain HB3, 48 h-72 h, read-out: IC50 (50% growth inhibition)
Description: as §1, §2, §3, §4, §5, §6

[12] = test system: Plasmodium falciparum, chloroquine-resistant strain ItG2 F6; test: activity against P. falciparum in vitro, strain ItG2 F6; type: cell-based; conditions: chloroquine-resistant strain ItG2 F6, 48 h-72 h, read-out: IC50 (50% growth inhibition)
Description: as §1, §2, §3, §4, §5, §6

[13] = test system: Plasmodium falciparum, chloroquine-sensitive strain NF54; test: activity against P. falciparum in vitro, strain NF54; type: cell-based; conditions: Plasmodium falciparum; chloroquine-sensitive strain NF54; 48 h-72 h; read-out: IC50 (50% growth inhibition)
Description: as §1, §2, §3, §4, §5, §6

[14] = single dose 10 mg/kg po, read-out: GI % at 10 mg/kg (po): percentage reduction in the parasitemia
[15] = single dose 10 mg/kg sc, read-out: GI % at 10 mg/kg (sc): percentage reduction in the parasitemia

SMILES | IC50 [1] [ng/mL] | IC50 [2] [ng/mL] | IC50 [3] [ng/mL] | IC50 [4] [ng/mL] | ED50 [5] [mg/kg] | inhibition in vivo at 10 mg/kg [5, 14] [%] | inhibition in vivo at 10 mg/kg [5, 15] [%] | IC50 [6] [ng/mL] | IC50 [7] [ng/mL] | IC50 [8] [ng/mL] | IC50 [9] [ng/mL] | IC50 [10] [ng/mL] | IC50 [11] [ng/mL] | IC50 [12] [ng/mL] | IC50 [13] [ng/mL]
CC1CC(C)(C)C(CNc2ccnc3cc(Cl)ccc23)C1N (stereo not drawn) [Example 20, (5-Amino-2,2,4-trimethyl-cyclopentylmethyl)-(7-chloro-quinolin-4yl)-amine] | 14 (≈ 0.044 µM) | 14 (≈ 0.044 µM) | 11 (≈ 0.0346 µM) | 10 (≈ 0.0315 µM) | 4.4 | 99.9 | 99.9 | 7 (≈ 0.022 µM) | 7 (≈ 0.022 µM) | 4 (≈ 0.0126 µM) | 8 (≈ 0.0252 µM) | 15 (≈ 0.0472 µM) | 4 (≈ 0.0126 µM) | 7 (≈ 0.022 µM) | 3 (≈ 0.00944 µM)
CC(CN(C)C)Nc1ccnc2cc(Cl)ccc12 (racemic) [Example 1, (RS)-N2-(7-Chloro-quinolin-4-yl)-N1,N1-dimethyl-propane-1,2-diamine] | 7 (≈ 0.0265 µM) | 15 (≈ 0.0569 µM) | 9 (≈ 0.0341 µM) | 9 (≈ 0.0341 µM) | 2.3 | 99.9 | 99.9 | 8 (≈ 0.0303 µM) | 5 (≈ 0.019 µM) | 7 (≈ 0.0265 µM) | 8 (≈ 0.0303 µM) | 9 (≈ 0.0341 µM) | 7 (≈ 0.0265 µM) | 4 (≈ 0.0152 µM) | 4 (≈ 0.0152 µM)
CN1CCC(Nc2ccnc3cc(Cl)ccc23)C1 (racemic) [Example 33a, (R,S)-(7-Chloro-quinolin-4-yl)-(1-methyl-pyrrolidin-3-yl)-amine] | 7 (≈ 0.0267 µM) | 9 (≈ 0.0344 µM) | 9 (≈ 0.0344 µM) | 8 (≈ 0.0306 µM) | 3.3 | 99.7 | 99.9 | 8 (≈ 0.0306 µM) | 5 (≈ 0.0191 µM) | 7 (≈ 0.0267 µM) | 9 (≈ 0.0344 µM) | 9 (≈ 0.0344 µM) | 7 (≈ 0.0267 µM) | 5 (≈ 0.0191 µM) | 7 (≈ 0.0267 µM)
Clc1ccc2c(N[C@@H]3CCCC[C@H]3N3CCCC3)ccnc2c1 (racemic) [Example 10, (1RS,2RS)-(7-Chloro-quinolin-4-yl)-(2pyrrolidin-1-yl-cyclohexyl)-amine] | 15 (≈ 0.0455 µM) | 18 (≈ 0.0546 µM) | 13 (≈ 0.0394 µM) | 17 (≈ 0.0515 µM) | 6.4 | 99 | 99 | 5 (≈ 0.0152 µM) | 7 (≈ 0.0212 µM) | 6 (≈ 0.0182 µM) | 16 (≈ 0.0485 µM) | 15 (≈ 0.0455 µM) | 8 (≈ 0.0243 µM) | 7 (≈ 0.0212 µM) | 7 (≈ 0.0212 µM)
